Earlier results in patent US9550804B2, “Dosage form to increase prasterone bioavailability” (Health Science Funding, LLC, priority 2011, dated 2017).
Converted amounts (≈) assume the structure as drawn.

Experiments:
[1] = not given; remark: listed apart in the source

In the case of `C[C@]12CC[C@H](O)CC1=CC[C@@H]1[C@@H]2CC[C@]2(C)C(=O)CC[C@@H]12` [Prasterone, (3S,8R,9S,10R,13S,14S)-3-hydroxy-10,13-dimethyl-3,4,7,8,9,10,11,12,13,14,15,16-dodecahydro-1H-cyclopenta[a]phenan-thren-17(2H)-one], the solubility in water is given as 63.5 µg/mL (≈ 220 µM) and the “log P (octanol-water)” value [1] is given as 3.23.
